Results taken from patent EP0054512A2, “Cephalosporin esters, process for their preparation and pharmaceutical compositions containing them” (CIBA-GEIGY AG, priority 1980, dated 1982).

Tested on: Escherichia coli, Proteus spp. und anderen
Assay: Systemic gram-negative infection in the mouse, oral administration
Design: species or system Maus
Settings: in vivo, oral administration to the mouse, systemic gram-negative infections, range across pathogens
From the text: Die Verbindungen der Formel I, worin Am eine freie Aminogruppe ist und ihre pharmazeutisch verwendbaren, nichttoxischen Salze sind wertvolle, antibiotisch wirksame Substanzen, die insbesondere als antibakterielle Antibiotika verwendet werden können.

CCOC(=O)OC(C)OC(=O)C1=CCS[C@@H]2[C@H](NC(=O)/C(=N\OC)c3csc(N)n3)C(=O)N12 (stereo partly shown) [7ß-[2-(2-Amino-4-thiazolyl)-2-methoxyiminoacetamido]-3-cephem-4-carbonsäure-1-äthoxycarbonyloxyäthylester]
ED50: 0.3 to 150 mg/kg
